According to patent publication US9371320B2, “Heterocyclic compound” (TAKEDA PHARMACEUTICAL COMPANY LIMITED, priority 2012, dated 2016):
Like-named read-outs stand apart in the source and are kept apart here.

Columns and labels:
JAK1 = molecular target: T1, JAK1 (Homo sapiens, UniProt P23458); experiment: JAK1 enzyme inhibition test (LANCE method); format: biochemical; conditions: for inhibition at 1 µM: read-out: Inhibitory rate (%) JAK1 1 μM; for inhibition at 10 µM: read-out: Inhibitory rate (%) JAK1 10 μM
T1 construct: purchased Invitrogen
Outline: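 TR-FRET (LANCE) kinase assay using JAK1 at 187.5 ng/mL, ULight-JAK1 peptide at 300 nM and ATP at 150 μM, given as solution concentrations before mixing. Buffer was 50 mM HEPES pH 7.5 with 10 mM MgCl2 and 2 mM DTT, and the reaction ran 1 h at room temperature. Eu anti-phosphotyrosine signal at 665 nm was expressed relative to a no-enzyme well, taken as 100% inhibition.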

Tyk2 = molecular target: T2, Tyk2 (Homo sapiens, UniProt P29597); experiment: Tyk2 enzyme inhibition test (LANCE method); format: biochemical; conditions: for inhibition at 1 µM: read-out: Inhibitory rate (%) Tyk2 1 μM; for inhibition at 10 µM: test compound 10 μM, read-out: Inhibitory rate (%) Tyk2 10 μM
T2 construct: purchased Invitrogen
Outline: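 Recombinant Tyk2 (375 ng/mL stock) with ULight-JAK1 peptide (300 nM stock) and ATP (30 μM stock) in HEPES pH 7.5/MgCl2/EGTA/DTT buffer, 1 h at room temperature. Stopped with EDTA plus Eu-anti-phosphotyrosine antibody; TR-FRET read at 665 nm after 1 h. No-enzyme wells define 100% inhibition.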

[1] = test compound 10 μM (Ex. 182-220), beside Tyk2 1 μM

T1 sequence (P23458 whole entry): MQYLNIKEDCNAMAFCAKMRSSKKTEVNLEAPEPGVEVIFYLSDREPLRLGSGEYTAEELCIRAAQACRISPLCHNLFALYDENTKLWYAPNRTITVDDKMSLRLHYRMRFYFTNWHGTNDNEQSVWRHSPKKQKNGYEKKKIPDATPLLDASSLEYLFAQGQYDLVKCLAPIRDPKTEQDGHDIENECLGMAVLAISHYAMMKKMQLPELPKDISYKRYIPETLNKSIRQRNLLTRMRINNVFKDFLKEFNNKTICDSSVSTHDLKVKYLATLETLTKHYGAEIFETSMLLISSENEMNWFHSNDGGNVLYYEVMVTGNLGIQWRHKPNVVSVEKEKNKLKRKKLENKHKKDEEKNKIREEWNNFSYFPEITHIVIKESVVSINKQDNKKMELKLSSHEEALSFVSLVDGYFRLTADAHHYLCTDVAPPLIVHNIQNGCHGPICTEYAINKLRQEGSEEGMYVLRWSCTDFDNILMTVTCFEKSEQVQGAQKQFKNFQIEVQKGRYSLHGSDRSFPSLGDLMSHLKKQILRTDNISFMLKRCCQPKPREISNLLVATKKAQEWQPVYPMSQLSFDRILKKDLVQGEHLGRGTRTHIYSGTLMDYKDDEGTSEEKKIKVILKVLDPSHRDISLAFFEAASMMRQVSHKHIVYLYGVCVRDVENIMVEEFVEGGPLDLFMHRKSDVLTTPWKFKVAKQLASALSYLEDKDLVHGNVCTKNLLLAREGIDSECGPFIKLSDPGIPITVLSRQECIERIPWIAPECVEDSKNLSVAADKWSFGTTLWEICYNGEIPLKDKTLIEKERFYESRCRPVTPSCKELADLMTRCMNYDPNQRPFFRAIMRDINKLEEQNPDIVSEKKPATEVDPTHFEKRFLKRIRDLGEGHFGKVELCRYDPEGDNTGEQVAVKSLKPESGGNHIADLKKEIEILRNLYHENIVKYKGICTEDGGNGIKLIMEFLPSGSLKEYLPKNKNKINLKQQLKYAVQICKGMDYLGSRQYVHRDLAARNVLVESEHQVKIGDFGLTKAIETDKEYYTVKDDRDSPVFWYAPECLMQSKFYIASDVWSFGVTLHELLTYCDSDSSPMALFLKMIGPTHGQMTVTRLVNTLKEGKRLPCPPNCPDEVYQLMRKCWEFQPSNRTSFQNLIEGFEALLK
T2 sequence (P29597 whole entry): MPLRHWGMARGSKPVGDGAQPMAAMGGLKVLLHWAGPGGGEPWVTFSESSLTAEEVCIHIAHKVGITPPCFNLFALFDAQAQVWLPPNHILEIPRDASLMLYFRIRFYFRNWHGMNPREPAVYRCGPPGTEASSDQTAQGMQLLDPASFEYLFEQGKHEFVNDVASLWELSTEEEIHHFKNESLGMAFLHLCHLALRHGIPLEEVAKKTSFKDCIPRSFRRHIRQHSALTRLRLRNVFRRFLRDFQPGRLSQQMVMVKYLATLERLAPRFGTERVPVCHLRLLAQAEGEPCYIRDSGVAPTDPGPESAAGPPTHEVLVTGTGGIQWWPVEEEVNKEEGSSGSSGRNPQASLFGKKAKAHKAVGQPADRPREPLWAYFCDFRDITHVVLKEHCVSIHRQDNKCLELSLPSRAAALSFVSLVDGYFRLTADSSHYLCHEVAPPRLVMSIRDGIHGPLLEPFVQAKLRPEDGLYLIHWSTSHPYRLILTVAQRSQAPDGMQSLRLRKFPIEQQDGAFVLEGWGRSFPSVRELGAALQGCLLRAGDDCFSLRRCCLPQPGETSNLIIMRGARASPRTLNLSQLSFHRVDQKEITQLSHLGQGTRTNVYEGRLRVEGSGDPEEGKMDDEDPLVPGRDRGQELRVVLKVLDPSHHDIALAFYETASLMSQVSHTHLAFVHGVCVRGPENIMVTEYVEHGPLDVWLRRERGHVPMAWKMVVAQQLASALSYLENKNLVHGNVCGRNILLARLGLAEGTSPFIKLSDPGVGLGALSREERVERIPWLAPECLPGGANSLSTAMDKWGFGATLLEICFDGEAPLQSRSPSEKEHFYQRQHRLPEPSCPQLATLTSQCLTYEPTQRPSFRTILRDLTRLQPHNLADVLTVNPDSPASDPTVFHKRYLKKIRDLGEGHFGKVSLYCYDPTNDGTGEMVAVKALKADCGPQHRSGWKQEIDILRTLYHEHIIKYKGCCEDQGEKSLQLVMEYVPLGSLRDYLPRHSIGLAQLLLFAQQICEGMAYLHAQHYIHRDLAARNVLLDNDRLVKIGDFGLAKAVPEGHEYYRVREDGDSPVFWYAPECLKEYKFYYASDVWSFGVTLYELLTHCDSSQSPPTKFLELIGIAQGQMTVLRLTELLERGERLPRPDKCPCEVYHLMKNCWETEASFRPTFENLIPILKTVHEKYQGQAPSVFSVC

Row | inhibition at 1 µM (JAK1; test compound 1 μM) [%] | inhibition at 1 µM (Tyk2; test compound 1 μM) [%] | Structure (SMILES) | other results
1 | 87 | 91 | O=c1[nH]ccc2c1c(-c1ccccc1)nn2C1CCCC1 [Example 43, 1-cyclopentyl-3-phenyl-1,5-dihydro-4H-pyrazolo[4,3-c]pyridin-4-one] | 
2 | 91 | 91 | NC(=O)Cc1cccc(-c2nn(C3CCCC3)c3cc[nH]c(=O)c23)c1 [Example 158, 2-(3-(1-cyclopentyl-4-oxo-4,5-dihydro-1H-pyrazolo[4,3-c]pyridin-3-yl)phenyl)acetamide] | 
3 | 99 | 97 | C[C@H]1CCC[C@H]1n1cc(-c2ccc(S(N)(=O)=O)cc2)c2c(=O)[nH]ccc21 (relative stereo) [Example 71, 4-(1-(cis-2-methylcyclopentyl)-4-oxo-4,5-dihydro-1H-pyrrolo[3,2-c]pyridin-3-yl)benzenesulfonamide] | 
4 | 98 | 98 | NC(=O)c1cc(-c2nn(C3CCOCC3)c3cc[nH]c(=O)c23)cs1 [Example 27, 4-(4-oxo-1-(tetrahydro-2H-pyran-4-yl)-4,5-dihydro-1H-pyrazolo[4,3-c]pyridin-3-yl)thiophene-2-carboxamide] | 
5 | 99 | 96 | NS(=O)(=O)c1cccc(Nc2nn(C3CCCC3)c3cc[nH]c(=O)c23)c1 [Example 284, 3-((1-cyclopentyl-4-oxo-4,5-dihydro-1H-pyrazolo[4,3-c]pyridin-3-yl)amino)benzenesulfonamide] | 
6 | 72 | 91 | Cn1cc(-c2nn(-c3c(F)cccc3F)c3cc[nH]c(=O)c23)ccc1=O [Example 238, 1-(2,6-difluorophenyl)-3-(1-methyl-6-oxo-1,6-dihydropyridin-3-yl)-1,5-dihydro-4H-pyrazolo[4,3-c]pyridin-4-one] | 
7 | 93 | 88 | NS(=O)(=O)c1ccc(-c2cn(C3CCOCC3)c3cc[nH]c(=O)c23)cc1 [Example 16, 4-(4-oxo-1-(tetrahydro-2H-pyran-4-yl)-4,5-dihydro-1H-pyrrolo[3,2-c]pyridin-3-yl)benzenesulfonamide] | 

The next lines start with the compound.

Row | Structure (SMILES) | inhibition at 1 µM (JAK1; test compound 1 μM) [%] | inhibition at 1 µM (Tyk2; test compound 1 μM) [%] | other results
8 | CN1CCN(c2ccc(-c3nn(-c4c(F)cccc4F)c4c(Cl)c[nH]c(=O)c34)cc2)C1=O [Example 239, 7-chloro-1-(2,6-difluorophenyl)-3-(4-(3-methyl-2-oxoimidazolidin-1-yl)phenyl)-1,5-dihydro-4H-pyrazolo[4,3-c]pyridin-4-one] | 46 | 99 | 
9 | CC(C)Cn1cc(-c2cn(C3CCCC3)c3c(C#N)c[nH]c(=O)c23)cn1 [Example 135, 1-cyclopentyl-3-(1-isobutyl-1H-pyrazol-4-yl)-4-oxo-4,5-dihydro-1H-pyrrolo[3,2-c]pyridine-7-carbonitrile] | 56 | 97 | 
10 | N#CCOc1ccc(-c2nn(-c3c(F)cccc3F)c3c(Cl)c[nH]c(=O)c23)cc1 [Example 167, (4-(7-chloro-1-(2,6-difluorophenyl)-4-oxo-4,5-dihydro-1H-pyrazolo[4,3-c]pyridin-3-yl)phenoxy)acetonitrile] | 53 | 97 | 
11 | O=c1[nH]ccc2c1c(-c1ccccc1C(F)(F)F)nn2C1CCCC1 [Example 53, 1-cyclopentyl-3-(2-(trifluoromethyl)phenyl)-1,5-dihydro-4H-pyrazolo[4,3-c]pyridin-4-one] |  |  | inhibition at 10 µM (JAK1; test compound 10 μM): 10%; inhibition at 10 µM (Tyk2): 28%
12 | NC(=O)c1ccc(F)c(-c2nn(-c3c(F)cccc3F)c3cc[nH]c(=O)c23)c1 [Example 267, 3-(1-(2,6-difluorophenyl)-4-oxo-4,5-dihydro-1H-pyrazolo[4,3-c]pyridin-3-yl)-4-fluorobenzamide] |  |  | inhibition at 10 µM (JAK1; test compound 10 μM): 17%; inhibition at 10 µM (Tyk2): 31%
13 | O=C1OCCN1Cc1ccc(-c2nn(-c3c(F)cccc3F)c3c(Cl)c[nH]c(=O)c23)cc1 [Example 186, 7-chloro-1-(2,6-difluorophenyl)-3-(4-((2-oxo-1,3-oxazolidin-3-yl)methyl)phenyl)-1,5-dihydro-4H-pyrazolo[4,3-c]pyridin-4-one] |  | 99 | inhibition at 10 µM (JAK1; [1]): 82%
14 | NC(=O)c1cc(-c2nn(-c3ccccn3)c3cc[nH]c(=O)c23)cs1 [Example 247, 4-(4-oxo-1-(pyridin-2-yl)-4,5-dihydro-1H-pyrazolo[4,3-c]pyridin-3-yl)thiophene-2-carboxamide] | 86 | 88 | 
15 | Cn1cc(-c2nn(-c3c(F)cccc3F)c3c(Cl)c[nH]c(=O)c23)cn1 [Example 189, 7-chloro-1-(2,6-difluorophenyl)-3-(1-methyl-1H-pyrazoI-4-yl)-1,5-dihydro-4H-pyrazolo[4,3-c]pyridin-4-one] |  | 100 | inhibition at 10 µM (JAK1; [1]): 92%
16 | NC(=O)c1cc(-c2nn(C3CCCC3)c3c(Br)c[nH]c(=O)c23)cs1 [Example 280, 4-(7-bromo-1-cyclopentyl-4-oxo-4,5-dihydro-1H-pyrazolo[4,3-c]pyridin-3-yl)thiophene-2-carboxamide] | 94 | 97 | 
17 | NC(=O)Cc1cccc(-c2nn(-c3c(F)cccc3F)c3cc[nH]c(=O)c23)c1 [Example 252, 2-(3-(1-(2,6-difluorophenyl)-4-oxo-4,5-dihydro-1H-pyrazolo[4,3-c]pyridin-3-yl)phenyl)acetamide] | 91 | 98 | 
18 | CCC(CC)n1cc(-c2csc(C(N)=O)c2)c2c(=O)[nH]ccc21 [Example 8, 4-(4-oxo-1-(pentan-3-yl)-4,5-dihydro-1H-pyrrolo[3,2-c]pyridin-3-yl)thiophene-2-carboxamide] | 98 | 98 | 
19 | NS(=O)(=O)c1ccc(-c2nn(C3CCOC3)c3cc[nH]c(=O)c23)cc1 (stereo not shown) [Example 83, 4-(4-oxo-1-(tetrahydrofuran-3-yl)-4,5-dihydro-1H-pyrazolo[4,3-c]pyridin-3-yl)benzenesulfonamide] |  |  | Inhibitory rate (%) JAK1 1 μM (JAK1; test compound 1 μM): 97%; Inhibitory rate (%) Tyk2 1 μM (Tyk2; test compound 1 μM): 89%
20 | NC(=O)c1cc(-n2nc(C3CCCC3)c3cc[nH]c(=O)c32)cs1 [Example 117, 4-(3-cyclopentyl-7-oxo-6,7-dihydro-1H-pyrazolo[3,4-c]pyridin-1-yl)thiophene-2-carboxamide] | 99 | 98 | 
21 | CN(C)C(=O)c1cc(-c2cn(C3CCCC3)c3c(C#N)c[nH]c(=O)c23)cs1 [Example 107, 4-(7-cyano-1-cyclopentyl-4-oxo-4,5-dihydro-1H-pyrrolo[3,2-c]pyridin-3-yl)-N,N-dimethylthiophene-2-carboxamide] | 96 | 98 | 
22 | O=c1[nH]cc(Cl)c2c1c(-c1ccc(N3CCS(=O)(=O)CC3)cc1)nn2-c1c(F)cccc1F [Example 242, 7-chloro-1-(2,6-difluorophenyl)-3-(4-(1,1-dioxidothiomorpholin-4-yl)phenyl)-1,5-dihydro-4H-pyrazolo[4,3-c]pyridin-4-one] | 27 | 97 | 
23 | NC(=O)COc1ccc(-c2nn(-c3c(F)cccc3F)c3c(Cl)c[nH]c(=O)c23)cc1 [Example 169, 2-(4-(7-chloro-1-(2,6-difluorophenyl)-4-oxo-4,5-dihydro-1H-pyrazolo[4,3-c]pyridin-3-yl)phenoxy)acetamide] | 79 | 99 | 
